{
  "source": "patent US7901675B2",
  "about": "“Method of using coenzyme Q10 to treat Huntington's disease” (U.S. Department of Veterans Affairs, priority 2004, dated 2011)",
  "key": {"R6/2 mice [1]": {"system": "R6/2 mice", "experiment": "Survival of R6/2 HD mice on oral CoQ10 in chow", "type": "in vivo", "method": "There is substantial evidence that bioenergetic defects may play a role in the pathogenesis of HD. A possible therapy for diseases in which there is defective energy metabolism is to administer the mitochondrial cofactor coenzyme Q10(CoQ10).\n(§1) The present invention is based, in part, on the discovery that increased level of CoQ10 appears to slow the progressive functional decline in […]. We orally administered CoQ10 at 400 mg/kg, and 1, 5, 10, and 20 g/kg in R6/2 mice starting at weaning in chow formulations."}, "R6/2 mice [2]": {"system": "R6/2 mice", "experiment": "Disease phenotype in R6/2 HD mice (weight loss, motor deficits, grip strength, brain atrophy, huntingtin inclusions)", "type": "in vivo", "settings": "oral CoQ10 in chow", "method": "as §1"}, "[3]": {"settings": "oral administration, 400 mg/kg, previously demonstrated"}},
  "data": [
    {"molecule": "COC1=C(OC)C(=O)C(C/C=C(\\C)CC/C=C(\\C)CC/C=C(\\C)CC/C=C(\\C)CC/C=C(\\C)CC/C=C(\\C)CC/C=C(\\C)CC/C=C(\\C)CC/C=C(\\C)CCC=C(C)C)=C(C)C1=O", "note": "[CoQ10, Coenzyme Q10]", "values": [
      {"measurement": "neuroprotection", "setting": "R6/2 mice [1]; [3]", "result": "neuroprotective"},
      {"measurement": "survival extension", "setting": "R6/2 mice [1]; [3]", "result": 14.5, "unit": "%"},
      {"measurement": "survival extension", "setting": "R6/2 mice [1]; oral in chow from weaning, 5 g/kg (greatest extension), vs untreated R6/2 mice", "result": 21.3, "unit": "%"},
      {"measurement": "survival in comparison to untreated R6/2 mice", "setting": "R6/2 mice [1]; oral in chow from weaning, all doses (400 mg/kg, 1, 5, 10, 20 g/kg)", "result": "significantly extended survival at all doses"},
      {"measurement": "development of brain atrophy", "setting": "R6/2 mice [2]", "result": "significantly delayed"},
      {"measurement": "development of grip strength deficit", "setting": "R6/2 mice [2]", "result": "significantly delayed"},
      {"measurement": "development of huntingtin inclusions", "setting": "R6/2 mice [2]", "result": "significantly delayed"},
      {"measurement": "development of motor deficits", "setting": "R6/2 mice [2]", "result": "significantly delayed"},
      {"measurement": "development of weight loss", "setting": "R6/2 mice [2]", "result": "significantly delayed"}
    ]}
  ]
}
